Experimental data published in the NIST ThermoML archive (doi:10.1016/j.jct.2007.11.002).

Assay: xn = mol fraction of the nth substance listed
Settings: 101 kPa, Liquid; for viscosity: Capillary tube (Ostwald / Ubbelohde) method

CN1CCOCC1 [N-methylmorpholine] + Cc1ccccc1
Settings | mass density, 298.15 K [kg/m3] | mass density, 303.15 K [kg/m3] | mass density, 313.15 K [kg/m3] | mass density, 323.15 K [kg/m3] | viscosity, 298.15 K [mPa·s] | viscosity, 303.15 K [mPa·s] | viscosity, 313.15 K [mPa·s] | viscosity, 323.15 K [mPa·s]
x2 = 0.0457 | 912.04 | 907.63 | 898.17 | 879.98 | 0.847 | 0.839 | 0.807 | 0.795
x2 = 0.1167 | 908.88 | 904.69 | 895.22 | 877.67 | 0.806 | 0.798 | 0.774 | 0.759
x2 = 0.1822 | 905.97 | 901.78 | 892.37 | 875.42 | 0.772 | 0.765 | 0.739 | 0.723
x2 = 0.2455 | 903.08 | 898.89 | 889.47 | 873.11 | 0.739 | 0.732 | 0.705 | 0.687
x2 = 0.2843 | 901.28 | 897.11 | 887.68 | 871.67 | 0.721 | 0.712 | 0.684 | 0.665
x2 = 0.3211 | 899.58 | 895.42 | 885.99 | 870.33 | 0.704 | 0.692 | 0.664 | 0.643
x2 = 0.3862 | 896.61 | 892.43 | 882.99 | 867.93 | 0.678 | 0.664 | 0.634 | 0.612
x2 = 0.4327 | 894.39 | 890.21 | 880.77 | 866.14 | 0.659 | 0.645 | 0.614 | 0.59
x2 = 0.4841 | 891.92 | 887.74 | 878.29 | 864.14 | 0.643 | 0.627 | 0.596 | 0.57
x2 = 0.5512 | 888.55 | 884.36 | 874.87 | 861.34 | 0.622 | 0.606 | 0.573 | 0.546
x2 = 0.5943 | 886.32 | 882.15 | 872.61 | 859.47 | 0.612 | 0.594 | 0.56 | 0.531
x2 = 0.6341 | 884.21 | 880.05 | 870.53 | 857.79 | 0.602 | 0.586 | 0.551 | 0.521
x2 = 0.6877 | 881.26 | 877.11 | 867.65 | 855.41 | 0.594 | 0.575 | 0.539 | 0.507
x2 = 0.7129 | 879.83 | 875.68 | 866.2 | 854.17 | 0.588 | 0.571 | 0.535 | 0.503
x2 = 0.7648 | 876.73 | 872.59 | 863.14 | 851.63 | 0.583 | 0.561 | 0.524 | 0.488
x2 = 0.7895 | 875.15 | 871.01 | 861.57 | 850.28 | 0.581 | 0.559 | 0.521 | 0.487
x2 = 0.8444 | 871.87 | 867.75 | 858.32 | 847.56 | 0.571 | 0.549 | 0.51 | 0.474
x2 = 0.8873 | 869.14 | 865.03 | 855.6 | 845.26 | 0.569 | 0.543 | 0.503 | 0.458
x2 = 0.9348 | 866.19 | 862.08 | 852.67 | 842.77 | 0.558 | 0.536 | 0.49 | 0.444
x2 = 0.9741 | 863.67 | 859.57 | 850.02 | 840.51 | 0.554 | 0.527 | 0.477 | 0.429
